Laboratory results reported in patent US7074761B1, “Peptides and production and use thereof” (Takeda Chemical Ind., Ltd., priority 1996, dated 2006).
Where a SMILES comes first, the peptide text is derived from it. Bridges are numbered along the chain shown (N, C = ends).

Experiments:
human SSTR5 = molecular target: T1, human SSTR5 (Homo sapiens, UniProt P35346); assay: [125I]-somatostatin binding inhibition, SSTR5 CHO cell membrane fraction; details: 25° C., 60 minutes
T1 construct: expressed in transfected cells; host or cells: CHO(dhfr-) cells, clone SSTR5-32-4, plasmid pA-1-11-SSTR5 (vector pAKKO-111)
Description: CHO(dhfr^−) cells (1×10^6 cells) were cultured on HAM F12 medium containing 10% fetal bovine serum in a dish with a diameter of 8 cm for 24 hours. Into these cells was introduced 10 μg of the human SSTR5 cDNA expression plasmid pA-1-11-SSTR5 obtained as described above in (2) by the calcium phosphate method (Cell Phect Transfection Kit; Pharmacia). At 24 hours after transfection, the medium was exchanged for DMEM containing 10% dialyzed fetal bovine serum, and cells forming a colony on this medium (namely DHFR^+ cells) were selected. Further, the cells selected were treated by the limiting dilution method for cloning from a single cell, and the cells thus cloned were measured for their somatostatin receptor protein expression ability by the binding assay described in Reference Example 1 (3). In this manner, a cell line with high somatostatin-binding activity. SSTR5-32-4, was selected. […]
The membrane fractions prepared in Reference Example 6 were each diluted to 3 μg/ml with assay buffer. […] After filtration, the radioactivity of [^125I]-somatostatin remaining on the filter paper was measured. For each test substance, the binding inhibition percentage (%) was calculated according to the formula: PBM=(B−NSB)/(B0−NSB)×100 (where PBM: percent maximum binding; B: radioactivity when the test sample is added; B0: maximum bound radioactivity; NSB: non-specifically bound radioactivity). […]

human SSTR2 = molecular target: T2, human SSTR2 (Homo sapiens, UniProt P30874); assay: cAMP accumulation inhibiting activity in SSTR2 expressing CHO cells (forskolin stimulated); type: cell-based; details: forskolin 10 μM, CHO cells SSTR2-HS5-9; read-out: ED50, inhibition of intracellular cAMP accumulation, SSTR2
T2 construct: expressed in transfected cells; host or cells: CHO(dhfr-) cells, clone SSTR2-HS5-9, plasmid pAC01 (vector pAKKO-111)
Description: (§1) For measuring the intracellular accumulations of cyclic adenosine 3′,5′-monophosphate (cAMP), the human somatostatin receptor expressing cell lines SSTR2-HS5-9, SSTR3-15-19, SSTR4-1-2 and SSTR5-32-4 respectively described in Reference Example 2 (3), Reference Example 3 (3), Reference Example 4 (3) and Reference Example 5 (3) were multiplied on 24-well plates until confluency. Said cells were washed with two 1-ml portions of medium A [Dulbecco-'s modified Eagle's medium (DMEM), 20 mM 2-[4-(2-hydroxyethyl)-1-piperazinyl]ethanesulfonic acid (HEPES) (pH. 7.5), 0.2% BSA, 0.2 mM 3-isobutyl-1-methylxanthine (IBMX)] and then 400 μl of medium A was added to each well and incubation was carried out at 37° C. for 1 hour. To each well were added 50 μl of a hCS-15 or hCS-17 solution (each diluted to a concentration 10 times the final concentration with medium A) and 50 μl of a forskolin solution (final concentration: 10 μM), and incubation was carried out at 37° C. for 30 minutes. The cells were washed with two 1-ml portions of medium A and then 500 μl of medium A and 100 μL of 20% aqueous perchloric acid solution were added to each well, followed by standing at 4° C. for 20 minutes for cell lysis. […] The amount of cAMP contained in this extract was determined using an Amersham's kit (cAMP EIA system).

human SSTR4 = molecular target: T3, human SSTR4 (Homo sapiens, UniProt P31391); assay: cAMP accumulation inhibiting activity in SSTR4 expressing CHO cells (forskolin stimulated); type: cell-based; details: forskolin 10 μM, CHO cells SSTR4-1-2; read-out: ED50, inhibition of intracellular cAMP accumulation, SSTR4
T3 construct: expressed in transfected cells; host or cells: CHO(dhfr-) cells, clone SSTR4-1-2, plasmid pA-1-11-SSTR4 (vector pAKKO-111)
Description: as §1

T1 sequence (P35346 whole entry): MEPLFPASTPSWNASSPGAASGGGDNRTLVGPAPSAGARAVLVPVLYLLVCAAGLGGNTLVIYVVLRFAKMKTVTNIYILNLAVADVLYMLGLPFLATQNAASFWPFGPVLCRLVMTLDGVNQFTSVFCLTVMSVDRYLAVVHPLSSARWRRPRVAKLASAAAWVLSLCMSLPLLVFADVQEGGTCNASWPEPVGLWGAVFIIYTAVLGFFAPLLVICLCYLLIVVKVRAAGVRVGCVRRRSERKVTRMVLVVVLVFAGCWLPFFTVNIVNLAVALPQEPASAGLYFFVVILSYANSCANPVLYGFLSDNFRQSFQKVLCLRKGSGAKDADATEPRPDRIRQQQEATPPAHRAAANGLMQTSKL
T3 sequence (P31391 whole entry): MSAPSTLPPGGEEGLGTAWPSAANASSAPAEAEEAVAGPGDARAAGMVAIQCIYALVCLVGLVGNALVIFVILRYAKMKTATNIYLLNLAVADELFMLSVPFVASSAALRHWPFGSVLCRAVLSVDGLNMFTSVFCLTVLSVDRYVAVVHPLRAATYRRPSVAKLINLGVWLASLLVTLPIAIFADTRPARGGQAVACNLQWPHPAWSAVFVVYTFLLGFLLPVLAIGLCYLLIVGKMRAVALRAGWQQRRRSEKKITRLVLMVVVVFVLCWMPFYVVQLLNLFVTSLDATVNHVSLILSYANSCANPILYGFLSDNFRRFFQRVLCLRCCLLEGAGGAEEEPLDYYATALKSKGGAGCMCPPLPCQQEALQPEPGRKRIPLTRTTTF
T2 sequence (P30874 whole entry): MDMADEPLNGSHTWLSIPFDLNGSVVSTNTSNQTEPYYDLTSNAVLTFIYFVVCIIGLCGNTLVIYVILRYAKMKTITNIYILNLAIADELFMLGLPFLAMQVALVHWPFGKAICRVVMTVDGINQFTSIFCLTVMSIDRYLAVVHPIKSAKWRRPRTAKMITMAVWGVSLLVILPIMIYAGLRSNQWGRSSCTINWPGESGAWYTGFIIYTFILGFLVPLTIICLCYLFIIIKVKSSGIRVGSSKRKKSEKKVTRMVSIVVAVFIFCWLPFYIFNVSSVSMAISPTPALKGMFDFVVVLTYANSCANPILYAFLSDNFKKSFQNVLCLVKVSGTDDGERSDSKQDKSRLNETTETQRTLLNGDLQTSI

CSCC[C@H](N)C(=O)N1CCC[C@H]1C(=O)N[C@H]1CSSC[C@@H](C(=O)N[C@@H](CCCCN)C(=O)O)NC(=O)[C@H](CO)NC(=O)[C@H](CO)NC(=O)[C@H](Cc2ccccc2)NC(=O)[C@H]([C@@H](C)O)NC(=O)[C@H](CCCCN)NC(=O)[C@H](Cc2c[nH]c3ccccc23)NC(=O)[C@H](Cc2ccccc2)NC(=O)[C@H](Cc2ccccc2)NC(=O)[C@H](CC(N)=O)NC(=O)[C@H](CCCNC(=N)N)NC1=O [hCS-15] (H-MPCRNFFWKTFSSCK-OH; disulfide 3-14; N-terminus and C-terminus assumed)
IC50 (human SSTR5): 0.6 nM | EC50 (human SSTR2): 7 nM | EC50 (human SSTR4): 0.2 nM
